Experimental data published in US12678510B2, “Drug loaded peptide brush polymers” (priority 2020, dated 2026).
Peptide text beside a SMILES is read from it. * marks the point of attachment. X1 = O=C1C2C3C=CC(C3)C2C(=O)N1CC(=O)*

Tested on: pronase
Experiment: Proteolytic degradation assay with pronase (RP-HPLC, MALDI-TOF-MS)
Type: in vitro ADME
Conditions: Streptomyces griseus, pronase (isolated proteolytic enzyme) in DPBS; pronase 0.35 U/mL in DPBS, 37° C., 50 μM peptide, after 3 hours; read-out: peptide cleavage
Method: The stability of drug delivery systems serves as a basis for enhancing half-life of therapeutic cargos during the course of delivery to targeted areas. To evaluate the stability of peptide brush polymers, positively charged poly(GGSGSGK) and its single peptide analogue GGSGSGK were treated with pronase, a robust proteolytic enzyme isolated from the extracellular fluid of Streptomyces griseus. RP-HPLC and MALDI-TOF mass spectroscopy were used to quantify the cleavage of peptides (FIGS. 30-33). As expected, the peptide underwent rapid degradation in the presence of pronase, resulting in approximately 75% peptide cleavage after 3 hours.
Monomer Nor-GGSGSGK and polymer Poly(GGSGSGK) (50 μM, with respect to peptide concentration) were treated with pronase (0.35 U/mL) in DPBS at 37° C. After treatment, the enzyme was heat denatured at 65° C. for 15 min.

`NCCCC[C@H](NC(=O)CNC(=O)[C@H](CO)NC(=O)CNC(=O)[C@H](CO)NC(=O)CNC(=O)CN1C(=O)C2C3C=CC(C3)C2C1=O)C(N)=O` (stereo partly shown) [GGSGSGK] (X1-GSGSGK-NH2; N-terminus assumed) showed a metabolised at 3 h, 50 μM of roughly 75%.
